Activity calls are given as the source filed them.
Tests used:
[1] = Luminescence Cell-Based Dose Retest to Confirm Inhibitors of Cancer Stem Cells. [Related pubchem assays (depositor defined):AID2717, AID2721]; assay type: functional; details: Homo sapiens
Protein skinhead-1 = biological target: T1, Protein skinhead-1 (Caenorhabditis elegans, UniProt P34707); assay type: functional
T1 sequence (P34707 whole entry): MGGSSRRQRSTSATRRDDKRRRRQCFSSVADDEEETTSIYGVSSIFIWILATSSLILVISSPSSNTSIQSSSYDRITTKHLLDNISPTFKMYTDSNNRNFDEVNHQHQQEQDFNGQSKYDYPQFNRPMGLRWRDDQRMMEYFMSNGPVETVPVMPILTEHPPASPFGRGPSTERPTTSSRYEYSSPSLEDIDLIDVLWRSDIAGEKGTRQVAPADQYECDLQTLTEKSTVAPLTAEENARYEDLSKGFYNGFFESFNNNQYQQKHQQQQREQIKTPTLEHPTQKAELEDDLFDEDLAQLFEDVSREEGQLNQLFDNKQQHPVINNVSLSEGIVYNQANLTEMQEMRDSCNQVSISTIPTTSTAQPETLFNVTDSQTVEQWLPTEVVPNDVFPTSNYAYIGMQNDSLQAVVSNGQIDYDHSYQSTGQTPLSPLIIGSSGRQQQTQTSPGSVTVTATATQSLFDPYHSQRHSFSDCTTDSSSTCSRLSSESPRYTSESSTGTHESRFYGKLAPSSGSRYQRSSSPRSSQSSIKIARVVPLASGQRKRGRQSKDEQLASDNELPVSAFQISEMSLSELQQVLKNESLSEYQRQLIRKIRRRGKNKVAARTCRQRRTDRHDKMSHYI

[2] = biological target: T2, Heat shock factor protein 1 (Mus musculus, UniProt P38532); experiment: enhancement of HSF1-driven luciferase signal – cell-based, NIH3T3, luminescence, dose retest, confirmation (AID 435004); assay type: functional;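 note: stress induced by proteasome inhibitor MG132 added 30 min after compound; luciferase reporter driven by HSF1 response element in NIH3T3 cells; actives raise luminescence as potentiators of the MG132 stress response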
T2 sequence (P38532 whole entry): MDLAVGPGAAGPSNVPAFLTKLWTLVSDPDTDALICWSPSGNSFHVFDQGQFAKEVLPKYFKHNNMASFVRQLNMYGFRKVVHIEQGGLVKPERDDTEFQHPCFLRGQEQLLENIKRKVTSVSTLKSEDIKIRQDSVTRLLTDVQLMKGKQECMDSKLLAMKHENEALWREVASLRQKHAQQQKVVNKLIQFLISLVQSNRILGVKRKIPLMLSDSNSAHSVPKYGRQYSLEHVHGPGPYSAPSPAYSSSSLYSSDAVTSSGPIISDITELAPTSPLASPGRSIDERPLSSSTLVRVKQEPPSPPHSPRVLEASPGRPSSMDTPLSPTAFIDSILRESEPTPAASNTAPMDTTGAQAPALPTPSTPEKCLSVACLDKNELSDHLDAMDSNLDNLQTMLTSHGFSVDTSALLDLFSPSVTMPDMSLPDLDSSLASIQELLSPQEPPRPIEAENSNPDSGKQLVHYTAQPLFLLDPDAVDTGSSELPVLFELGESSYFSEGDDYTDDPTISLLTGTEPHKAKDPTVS

Cytochrome P450 2C19 = Cytochrome P450 2C19 (Homo sapiens, UniProt P33261); experiment: Cytochrome panel assay with activity outcomes. Panel member name: p450-cyp2c19 Compounds with AC50 equal or less than 10 uM are considered active; assay type: functional; details: read-out: AC50
Chain of Cytochrome P450 2C19 (P33261 whole entry): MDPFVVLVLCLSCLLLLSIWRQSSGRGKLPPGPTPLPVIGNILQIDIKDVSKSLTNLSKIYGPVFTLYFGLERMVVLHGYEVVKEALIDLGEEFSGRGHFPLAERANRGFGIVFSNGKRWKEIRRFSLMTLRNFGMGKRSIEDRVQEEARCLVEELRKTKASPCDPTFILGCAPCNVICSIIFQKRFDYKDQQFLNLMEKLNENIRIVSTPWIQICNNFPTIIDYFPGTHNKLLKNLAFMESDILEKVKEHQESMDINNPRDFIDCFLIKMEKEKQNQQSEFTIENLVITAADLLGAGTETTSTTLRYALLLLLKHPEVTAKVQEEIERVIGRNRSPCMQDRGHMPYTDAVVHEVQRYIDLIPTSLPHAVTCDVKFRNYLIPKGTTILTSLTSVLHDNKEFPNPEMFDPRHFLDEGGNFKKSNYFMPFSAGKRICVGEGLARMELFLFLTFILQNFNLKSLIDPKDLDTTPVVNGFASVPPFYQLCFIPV

Cytochrome P450 1A2 = biological target: T3, Cytochrome P450 1A2 (Homo sapiens, UniProt P05177);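 note: PubChem cytochrome P450 panel assay, CYP1A2 panel member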
T3 sequence (P05177 whole entry): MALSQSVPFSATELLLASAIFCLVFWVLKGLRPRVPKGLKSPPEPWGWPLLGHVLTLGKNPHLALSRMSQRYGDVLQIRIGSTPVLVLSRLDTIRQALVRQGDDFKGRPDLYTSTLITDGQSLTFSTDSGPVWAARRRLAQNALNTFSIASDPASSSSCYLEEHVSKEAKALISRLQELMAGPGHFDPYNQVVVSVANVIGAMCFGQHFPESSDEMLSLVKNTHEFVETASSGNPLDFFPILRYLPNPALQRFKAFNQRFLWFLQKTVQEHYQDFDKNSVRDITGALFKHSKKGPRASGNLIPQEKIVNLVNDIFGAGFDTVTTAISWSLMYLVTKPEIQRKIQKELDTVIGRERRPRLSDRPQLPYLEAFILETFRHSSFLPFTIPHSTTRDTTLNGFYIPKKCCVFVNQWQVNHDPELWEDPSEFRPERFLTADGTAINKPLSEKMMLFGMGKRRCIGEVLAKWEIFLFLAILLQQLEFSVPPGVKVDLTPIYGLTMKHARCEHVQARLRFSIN

Paired box protein Pax-8 = Paired box protein Pax-8 (Homo sapiens, UniProt Q06710); experiment: PAX8 transcriptional activity inhibition in RMG-I – RMG-I cells, luciferase, cherry-pick, dose response (AID 687027); assay type: functional, cell-based;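 note: luciferase reporter driven by Pax8 target thyroperoxidase promoter measured by SteadyGlo luminescence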
Chain of Paired box protein Pax-8 (Q06710 whole entry): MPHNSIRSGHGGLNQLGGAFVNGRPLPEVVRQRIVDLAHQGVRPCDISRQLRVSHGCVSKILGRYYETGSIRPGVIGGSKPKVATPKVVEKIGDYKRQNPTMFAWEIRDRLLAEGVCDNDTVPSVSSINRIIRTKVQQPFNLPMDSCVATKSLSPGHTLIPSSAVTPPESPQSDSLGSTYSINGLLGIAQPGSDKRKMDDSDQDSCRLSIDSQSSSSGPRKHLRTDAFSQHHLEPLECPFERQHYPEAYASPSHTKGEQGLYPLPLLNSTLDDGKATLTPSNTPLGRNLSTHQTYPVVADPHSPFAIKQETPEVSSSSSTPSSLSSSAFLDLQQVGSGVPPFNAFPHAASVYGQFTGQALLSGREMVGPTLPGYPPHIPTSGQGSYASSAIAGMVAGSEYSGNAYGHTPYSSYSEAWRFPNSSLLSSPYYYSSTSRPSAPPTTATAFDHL

[3] = Luminescence Cell-Based Dose Confirmation HTS to Identify Activators of 5'UTR Stem-Loop Driven Alpha-Synuclein mRNA Translation in H4 Neuroglioblastoma Cells. [Related pubchem assays: 1829 (Project Summary), 1814 (Primary HTS)]; assay type: functional
[4] = Luminescence Cell-Based Dose Response HTS to Identify Activators of Luciferase Translation or Activity in H4 […] Cells. [Related pubchem assays: 1829 (Project Summary), 1814 (Primary HTS)]; assay type: functional
H4 = experiment: Luminescence Cell-Based Dose Response HTS to Identify Activators of 5'UTR Stem-Loop Driven Prion Protein mRNA Translation in H4 Neuroglioblastoma Cells. [Related pubchem assays: 1829 (Project Summary), 1814 (Primary HTS)]; assay type: functional; details: Homo sapiens
[5] = viability of uninfected HEp-2 cells – cell-based, HTS, cytotoxicity control for RSV inhibitor project, dose response (AID 2410); assay type: functional; details: human respiratory syncytial virus
[6] = biological target: T2, Heat shock factor protein 1; experiment: decrease of HSF1-responsive luciferase luminescence – cell-based, NIH3T3, dose retest, confirmation (AID 2382); assay type: functional;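 note: NIH3T3 fibroblasts with HSF1-driven luciferase reporter stressed by proteasome inhibitor MG132; luminescence from HSF1-driven luciferase expression after 8 hours of MG132 stress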

O=C(Nc1cccc(-c2csc(Nc3ccccc3)n2)c1)c1ccccc1
AC50 [1]: 2.96 µM (active) | IC50 (Protein skinhead-1): > 100 µM (inactive)

COc1ccccc1NC(=O)CSc1nnc(-c2ccncc2)o1
IC50 (Protein skinhead-1): > 100 µM (inactive)

Cn1c(S)nnc1Cc1c[nH]c2ccccc12
IC50 (Protein skinhead-1): > 100 µM (inactive)

CCCC12CN3CC(C)(CN(C1)C3c1ccc3c(c1)OCO3)C2=O (stereo unspecified)
EC50 [2]: > 260 µM (inactive)

CCN(CC)S(=O)(=O)c1cc([N+](=O)[O-])ccc1NNC(=O)Nc1ccccc1OC
EC50 [2]: > 260 µM (inactive)

Cc1ccc(NN/C=C2\C(=O)NC(=O)N(c3ccccc3)C2=O)cc1
AC50 [1]: 2.35 µM (active)

Cc1ccc(F)c(C2C3C=CCC(c4cccc(-c5ccc(N(C)C)cc5)c4)C3C(=O)N2Cc2ccccc2)c1 (stereo unspecified)
IC50 (Protein skinhead-1): > 100 µM (inactive)

CC(NC(=O)c1cc(COc2ccccc2)on1)c1nccs1 (stereo unspecified)
IC50 (Protein skinhead-1): > 100 µM (inactive)

Cc1ccccc1-c1cncnc1N1CCN(C)CC1
AC50 (Cytochrome P450 2C19): 39.8 µM (inconclusive) | AC50 (Cytochrome P450 1A2): 15.8 µM (inconclusive)

O=S(=O)(NC1CCCCC1N1CCN(c2ccccc2F)CC1)c1ccccc1 (stereo unspecified)
AC50 (Paired box protein Pax-8): 23.1 µM (active)

CC1(C)CC(=O)C(C2C3=C(CC(C)(C)CC3=O)OC3=C2C(=O)CC(C)(C)C3)=C(O)C1
EC50 [2]: > 260 µM (inactive)

COC(=O)C1=C(c2ccc(F)cc2OCc2ccccc2)C[C@@H]2CC[C@H]1N2C(=O)NCc1ccc2[nH]ccc2c1
AC50 (Paired box protein Pax-8): 18.2 µM (active)

c1ccc(N2OCC3Cn4c(nc5ccccc54)C32)cc1 (stereo unspecified)
EC50 [3]: 30.3 µM (active) | EC50 [4]: 8.69 µM (active) | EC50 (H4): 44.2 µM (active)

C=CCSc1n[nH]c(-c2ccccc2)n1
EC50 [3]: 9.22 µM (active) | EC50 [4]: 8.06 µM (active) | EC50 (H4): 75.3 µM (active)

O=C1CN(c2nc(-c3cccs3)nc3sc4c(c23)CCCC4)CCN1
CC50 [5]: > 50 µM (active) | EC50 [3]: 9.49 µM (active) | EC50 [4]: 15.2 µM (active) | EC50 (H4): 21 µM (active)

Cc1cc(NC(=O)COc2cccc(Oc3ccccc3)c2)no1
EC50 [3]: > 120 µM (not active) | EC50 [4]: > 120 µM (not active) | EC50 (H4): > 120 µM (not active)

O=C(/C=C\Nc1ccc(Br)cc1)c1cccnc1
IC50 (Protein skinhead-1): 71.4 µM (inactive)

Oc1c2c(nc3cc(-c4cccc(F)c4)nn13)CCC2
EC50 [2]: > 260 µM (inactive)

CN(C)c1nc(N)nc(CSc2nnnn2-c2ccc(F)cc2)n1
EC50 [2]: > 260 µM (inactive)

O=C1c2ccccc2CCc2ccc(Br)cc21
IC50 (Protein skinhead-1): 35.6 µM (active)

FC(F)(F)c1ccc(-c2noc(CN3CCCN(C4CCCCC4)CC3)n2)cc1
AC50 [1]: 1.79 µM (active)

O=S(=O)(Nc1ccc2c(c1)OCCO2)c1cccs1
EC50 [3]: 14.8 µM (active) | EC50 [4]: 10.9 µM (active) | EC50 (H4): 10.8 µM (active) | EC50 [6]: 2.91 µM (active)

Cc1ccc(-c2noc(CCC(=O)Nc3cc(C)ccn3)n2)cc1
EC50 [2]: > 260 µM (inactive)

Oc1ccc(C2C(c3ccccc3)=NN=C(c3ccccc3F)N2O)c(O)c1 (stereo unspecified)
EC50 [3]: 95.8 µM (active) | EC50 [4]: 72.3 µM (active) | EC50 (H4): > 120 µM (not active)

O=C(Nc1nc(-c2cccc3ccccc23)cs1)c1ccc2c(c1)S(=O)(=O)c1ccccc1C2=O
AC50 [1]: 3.99 µM (active)

COc1ccc(NC(=O)CSc2n[nH]c(N)n2)cc1OC
EC50 [3]: > 120 µM (not active) | EC50 [4]: > 120 µM (not active) | EC50 (H4): > 120 µM (not active)

COc1cc(C2C3=C(COC3=O)Oc3cc4c(cc32)OCO4)cc(OC)c1O (stereo unspecified)
AC50 (Paired box protein Pax-8): 1.74 µM (active)

COC(=O)c1ccc(CC2(C)C(=O)Nc3ccc(-c4cccc(C(F)(F)F)c4)cc32)o1 (stereo unspecified)
IC50 (Protein skinhead-1): 79.3 µM (inactive)

C/C(=C\C(=O)c1ccc(Br)cc1)NCc1ccccc1
EC50 [3]: > 120 µM (not active) | EC50 [4]: 9.58 µM (active) | EC50 (H4): 90.3 µM (active)

C/C(=N\NC(=O)c1ccoc1C)c1cccc2ccccc12
EC50 [2]: > 260 µM (inactive)

CC1(C(=O)NS(=O)(=O)c2cccs2)CCN1C(=O)Cc1ccc(-c2ccccc2)cc1 (stereo unspecified)
IC50 (Protein skinhead-1): > 100 µM (inactive)

Reference: ChEMBL document CHEMBL1201862, “PubChem BioAssay data set” (2004)
